In the assay the target is T1, Human TRPV3 (Homo sapiens, UniProt Q8NET8).
T1 construct: expressed in transfected cells; host or cells: CHO cells (selected with G-418)
T1 sequence (Q8NET8 1-790): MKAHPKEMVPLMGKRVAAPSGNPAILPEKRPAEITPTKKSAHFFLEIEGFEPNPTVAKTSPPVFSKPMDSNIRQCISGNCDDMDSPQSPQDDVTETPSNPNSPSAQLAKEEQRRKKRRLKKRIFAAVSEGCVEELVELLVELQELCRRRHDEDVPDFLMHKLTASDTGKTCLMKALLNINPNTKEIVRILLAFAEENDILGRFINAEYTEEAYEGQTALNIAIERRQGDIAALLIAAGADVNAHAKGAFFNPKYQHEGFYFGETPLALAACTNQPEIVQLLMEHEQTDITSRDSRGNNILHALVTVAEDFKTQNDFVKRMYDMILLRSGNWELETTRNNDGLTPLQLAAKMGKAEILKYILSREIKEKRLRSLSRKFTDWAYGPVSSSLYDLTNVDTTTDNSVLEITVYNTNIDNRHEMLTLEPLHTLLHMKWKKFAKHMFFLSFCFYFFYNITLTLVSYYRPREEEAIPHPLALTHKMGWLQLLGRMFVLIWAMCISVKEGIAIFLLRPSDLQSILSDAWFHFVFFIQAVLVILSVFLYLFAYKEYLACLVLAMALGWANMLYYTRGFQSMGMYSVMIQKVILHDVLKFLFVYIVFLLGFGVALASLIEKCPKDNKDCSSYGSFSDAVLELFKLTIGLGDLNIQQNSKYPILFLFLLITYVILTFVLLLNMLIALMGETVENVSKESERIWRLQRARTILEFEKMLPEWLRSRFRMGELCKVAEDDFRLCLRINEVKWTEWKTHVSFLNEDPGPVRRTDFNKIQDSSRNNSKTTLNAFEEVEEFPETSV
Put plainly: 45Calcium uptake assay: inhibition of 2-APB induced cellular uptake of radioactive calcium. In kind it is cell-based. As to conditions: human TRPV3 expressing CHO cells, 2-APB 500 μM; for inhibition at 1 µM: 1 μM test compound, read-out: Percentage Inhibition (1 μM); for inhibition at 10 µM: 10 μM test compound, read-out: Percentage Inhibition (10 μM); for IC50: class symbol. An excerpt: The illustrative examples of the present invention are screened for TRPV3 activity according to a modified procedure described in Tóth, A., Kedei, N., Wang, Y. and Blumberg, P. M. Life Sciences (2003), 73, 487-498. The screening of the compounds can be carried out by other methods and procedures known to a person skilled in the art. Such screening methods may be found in (a) Hu, H.-Z. et al. J. Biol. Chem. (2004), 279, 35741-35747; (b) Smith, G. D. et al. Nature (2002), 418, 186-190; (c) Peier, A. M. et al. Science (2002), 296, 2046-2049.
Screening for TRPV3 antagonist using the ^45Calcium uptake assay The inhibition of TRPV3 receptor activation was followed as inhibition of 2-aminoethoxydiphenylborate (2-APB) induced cellular uptake of radioactive calcium. Test compounds were dissolved in dimethyl sulfoxide (DMSO) to prepare 20 mM stock solution and then diluted using plain medium with DMEM/F-12 containing 1.8 mM CaCl2 to get desired concentration. Final concentration of DMSO in the reaction was 0.5% (v/v). Human TRPV3 expressing CHO cells were grown in DMEM/F-12 medium with 10% FBS, 1% penicillin-streptomycin solution, 400 μg/ml of G-418. Cells were seeded 24 h prior to the assay in 96 well plates so as to get ˜50,000 cells per well on the day of experiment. Cells were treated with test compounds for 10 minutes followed by addition of 2-APB at a final concentration of 500 μM and 5 μCi/ml^45Ca^+2 for 4 minutes. Cells were washed and lysed using buffer containing 1% Triton X-100, 0.1% deoxycholate and 0.1% SDS. Radioactivity in the lysate was measured in Packardt Top count after addition of liquid scintillant. Concentration response curves were plotted as a % of maximal response obtained in the absence of test antagonist. IC50 value was calculated from concentration response curve by nonlinear regression analysis using GraphPad PRISM software.
Percentage inhibition at concentrations of 1.0 μM and 10.0 μM are given in the table along with IC50 details for selected examples.

This passage reports inhibition and IC50 results from patent US8344010B2, “Fused imidazole derivatives as TRPV3 antagonist” (Glenmark Pharmaceuticals S.A., priority 2008, dated 2013).

The inhibition is the percentage by which the read-out fell short of the control. As usually defined, the IC50 is the concentration at which inhibition is half-maximal.

For `COc1cccc(/C=C/c2nc3cc(C)c(C)cc3n2-c2ccc(C#N)cn2)c1OC1CCCC1` [Example 62, 6-{2-[(E)-2-(2-[Cyclopentyloxy]-3-methoxyphenyl)vinyl]-5,6-dimethyl-1H-benzimidazol-1-yl}nicotinonitrile], the inhibition at 1 µM amounted to 92%, the inhibition at 10 µM turned out to be 95.9% and the IC50 is 100 to 500 nM.
With `CCC(CC)Oc1c(/C=C/c2nc3cc(F)c(F)cc3n2-c2ccc(C#N)cn2)cccc1OC` [Example 77, 6-{2-[(E)-2-(2-(1-ethylpropoxy)-3-methoxyphenyl)vinyl]-5,6-difluoro-1H-benzimidazol-1-yl}nicotinonitrile], the inhibition at 1 µM was determined as 93.2%, the inhibition at 10 µM is 98.7% and the IC50 lay within 50 to 100 nM.
For `N#Cc1ccc(-n2c(/C=C/c3cccc(OC(F)F)c3OC3CCCC3)nc3cccnc32)nc1` [Example 98, 6-(2-{(E)-2-[2-(Cyclopentyloxy)-3-difluoromethoxyphenyl]vinyl}-3H-imidazo[4,5-b]pyridin-3-yl)nicotinonitrile] the same measures were 95.9%, 100% and 100 to 500 nM.
For `N#Cc1ccc(-n2c(/C=C/c3cccc(OC(F)F)c3OC3CCCC3)nc3cc(F)c(F)cc32)nc1` [Example 84, 6-(2-{(E)-2-[2-(Cyclopentyloxy)-3-difluoromethoxyphenyl-]vinyl}-5,6-difluoro-1H-benzimidazol-1-yl)nicotinonitrile] the same measures were 98.4%, 99.3% and less than 50 nM.
For `N#Cc1ccc(-n2c(/C=C/c3cccc(OC(F)F)c3OC3CCCC3)nc3cc(Cl)cnc32)nc1` [Example 103, 6-(6-Chloro-2-{(E)-2-[2-(cyclopentyloxy)-3-difluoromethoxyphenyl]vinyl}-3H-imidazo[4,5-b]pyridin-3-yl)nicotinonitrile] the same measures were 98.3%, 97.8% and 50 to 100 nM.
In the case of `COc1cccc(/C=C/c2nc3ccccc3n2-c2ccc(C#N)cc2F)c1OCC1CC1` [Example 39, 4-{2-[(E)-2-(2-Cyclopropylmethoxy-3-methoxyphenyl)vinyl]-1H-benzimidazol-1-yl}-3-fluorobenzonitrile], the inhibition at 1 µM came out at 76.8%, the inhibition at 10 µM is 94.2% and the concentration for half-maximal inhibition (IC50) lay within 100 to 500 nM.
As to `COc1cccc(/C=C/c2nc3ccc(F)cc3n2-c2ccc(C#N)cn2)c1OC1CCCC1` [Example 53, 6-{2-[(E)-2-(2-Cyclopentyloxy-3-methoxyphenyl)vinyl]-6-fluoro-1H-benzimidazol-1-yl}nicotinonitrile], the inhibition at 1 µM was 96%, the inhibition at 10 µM amounted to 98.7% and the IC50 lay in the range of 100 to 500 nM.
Turning to `COc1cccc(/C=C/c2nc3ccccc3n2-c2ccc(C(F)(F)F)cc2)c1OC1CCCC1` [Example 35, 2-[(E)-2-(2-Cyclopentyloxy-3-methoxyphenyl)vinyl]-1-[4-(trifluoromethyl)phenyl]-1H-benzimidazole], the inhibition at 1 µM worked out at 54.3% and the inhibition at 10 µM came out at 77.8%.
Take `COc1cccc(/C=C/c2nc3ccccc3n2-c2ccc(Cl)cn2)c1OC1CCCC1` [Example 3, 1-(5-Chloropyridin-2-yl)-2-{(E)-2-[2-(cyclopentyloxy)-3-methoxyphenyl]vinyl}-1H-benzimidazole]: the inhibition at 1 µM amounted to 62.1%, the inhibition at 10 µM was determined as 86.6% and the IC50 was greater than 500 nM.
For `COc1cccc(/C=C/c2nc3ccccc3n2-c2ccc(C(F)(F)F)cn2)c1OC(C)C` [Example 25, 2-[(E)-2-(2-Isopropoxy-3-methoxyphenyl)vinyl]-1-(5-trifluoromethylpyridin-2-yl)-1H-benzimidazole] the same measures were 86.7%, 97.5% and 100 to 500 nM.
For `FC(F)Oc1cccc(/C=C/c2nc3cccnc3n2-c2ccc(C(F)(F)F)cc2)c1OCC1CCC1` [Example 99, 2-[(E)-2-(2-Cyclobutylmethoxy-3-difluoromethoxyphenyl)vinyl]-3-[4-(trifluoromethyl)phenyl]-3H-imidazo[4,5-b]pyridine] the same measures were 89.5%, 95.8% and greater than 500 nM.
Turning to `COc1cccc(/C=C/c2nc3ccccc3n2-c2nccs2)c1OCC1CC1` [Example 46], the inhibition at 1 µM was 16.1% and the inhibition at 10 µM was 81.1%.
`COc1cccc(/C=C/c2nc3cc(F)c(F)cc3n2-c2ccc(C(N)=O)nn2)c1OC1CCCC1` [Example 75, 6-{2-[(E)-2-(2-Cyclopentyloxy-3-methoxyphenyl)vinyl]-5,6-difluoro-1H-benzimidazol-1-yl}pyridazine-3-carboxamide]: the inhibition at 1 µM worked out at 34.4% and the inhibition at 10 µM came to 90.7%.
On the same counts, the results for `COc1cccc(/C=C/c2nc3ccccc3n2-c2ccc(F)c(C#N)c2)c1OCC1CC1` [Example 38] are 48.3% and 59.2%.
Turning to `CCCCCOc1c(/C=C/c2nc3cc(F)cc(F)c3n2-c2ccc(C#N)cn2)cccc1OC` [Example 78, 6-{5,7-Difluoro-2-[(E)-2-(2-pentyloxy-3-methoxyphenyl)vinyl]-1H-benzimidazol-1-yl}nicotinonitrile], the inhibition at 1 µM was found to be 92.7%, the inhibition at 10 µM was determined as 96.8% and the IC50 was 50 to 100 nM.
Take `COc1cccc(/C=C/c2nc3cc(F)c(F)cc3n2-c2ccc(C#N)cn2)c1OCC(C)C` [Example 66, 6-{5,6-Difluoro-2-[(E)-2-(2-isobutoxy-3-methoxyphenyl)vinyl]-1H-benzimidazol-1-yl}nicotinonitrile]: the inhibition at 1 µM came to 98.6%, the inhibition at 10 µM was 99.5% and the IC50 lay within 100 to 500 nM.
On the same counts, the results for `COc1cccc(/C=C/c2nc3ccc(Cl)cc3n2-c2ccc(C#N)cn2)c1OCC(C)C` [Example 52, 6-(6-Chloro-2-{(E)-2-[3-methoxy-2-(2-methylpropoxy)phenyl]ethenyl}-1H-benzimidazol-1-yl)pyridine-3-carbonitrile] are 97.7%, 98.4% and 50 to 100 nM.
For `COc1cccc(/C=C/c2nc3ccccc3n2-c2ncc(Cl)cc2Cl)c1OCc1ccccc1F` [Example 6, 1-(3,5-Dichloropyridin-2-yl)-2-{(E)-2-[2-(2-fluorobenzyloxy)-3-methoxyphenyl]vinyl}-1H-benzimidazole] the same measures were 66.8%, 89% and greater than 500 nM.
`COc1cccc(/C=C/c2nc3ccccc3n2-c2ccc(C#N)cn2)c1OCc1c(F)cccc1F` [Example 17, 6-(2-{(E)-2-[2-(2,6-Difluorobenzyloxy)-3-methoxyphenyl]vinyl}-1H-benzimidazol-1-yl)nicotinonitrile]: the inhibition at 1 µM was 84.3%, the inhibition at 10 µM was found to be 95.8% and the IC50 is 100 to 500 nM.
For `COc1cccc(/C=C/c2nc3c(F)cc(F)cc3n2-c2ccc(C#N)cn2)c1OC1CCCC1` [Example 80, 6-{4,6-Difluoro-2-[(E)-2-(2-[cyclopentyloxy]-3-methoxyphenyl)vinyl]-1H-benzimidazol-1-yl}nicotinonitrile] the same measures were 97.6%, 98.8% and 50 to 100 nM.
